Assay: Solubility in solvents
Assay type: physicochemical
Settings: for solubility in solvents: PGMEA (methoxypropyl acetate): solvent PGMEA; for solubility in solvents: chloroform: solvent chloroform; for solubility in solvents: cyclohexanone: solvent cyclohexanone; for solubility in solvents: ethyl acetate: solvent ethyl acetate; for solubility in solvents: THF: solvent THF; for solubility in solvents: methanol: solvent methanol

Compound | solubility in solvents: PGMEA (methoxypropyl acetate) [% by weight] | solubility in solvents: chloroform [% by weight] | solubility in solvents: cyclohexanone [% by weight] | solubility in solvents: ethyl acetate | solubility in solvents: THF [% by weight] | solubility in solvents: methanol [% by weight]
CCC(C)(C)OC(=O)N1C(=O)C2=C(c3ccc(Cl)cc3)N(C(=O)OC(C)(C)CC)C(=O)C2=C1c1ccc(Cl)cc1 [DPP, N,N′-bis-tert-amyloxycarbonyl-1,4-diketo-3,6-di(4′-chlorophenyl)pyrrolo-[3,4-c]pyrrole, reference compound] | 5 | 10 | 10 | not more than 1 % by weight | – | –
CCC(C)(C)OC(=O)N/C(=C1/C(=O)N(C(=O)OC(C)(C)CC)C(c2ccc(Cl)cc2)=C1C(=O)OC)c1ccc(Cl)cc1 [compound 1] | 2 | 50 | 10 | 4.55 % by weight | 28.57 | 0.2
CCC(C)(C)OC(=O)N/C(=C1/C(=O)NC(c2ccc(Cl)cc2)=C1C(=O)OC)c1ccc(Cl)cc1 [compound 2] | 0.67 | 2 | 5 | 1 % by weight | 12.5 | 0.1

— patent publication US20040050294A1, “Coloring material and color filter” (Dai Nippon Printing Co., Ltd., priority 1999, published 2004)
